Laboratory results as given in the supplement of paper PMC11451515.

System: NOMO1
Experiment: cell viability relative to DMSO control; higher = less cytotoxic
Conditions: 48 h
Procedure, shortened: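 Viability was expressed as a per-plate percentage of DMSO wells, with cell-free wells as background. Leukemia cells (NOMO1 or SEM at 500 cells/well, P12-Ichikawa at 1000 cells/well) were adapted for at least four passages in each medium and seeded in 1536-well plates (5 μl). Library compounds in DMSO were pin-dosed over an 11-point threefold series from 47 μM to 0.79 nM, and CellTiter-Glo One luminescence was read after 48 h at 37°C.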

[1] = RPMI 5 mM glucose + 10% dialyzed FBS, 0.000781 µM
[2] = RPMI 5 mM glucose + 10% dialyzed FBS, 0.00234 µM
[3] = RPMI 5 mM glucose + 10% dialyzed FBS, 0.00702 µM
[4] = RPMI 5 mM glucose + 10% dialyzed FBS, 0.0211 µM
[5] = RPMI 5 mM glucose + 10% dialyzed FBS, 0.0632 µM
[6] = RPMI 5 mM glucose + 10% dialyzed FBS, 0.19 µM
[7] = RPMI 5 mM glucose + 10% dialyzed FBS, 0.569 µM
[8] = RPMI 5 mM glucose + 10% dialyzed FBS, 1.71 µM
[9] = RPMI 5 mM glucose + 10% dialyzed FBS, 5.12 µM
[10] = RPMI 5 mM glucose + 10% dialyzed FBS, 15.4 µM
[11] = RPMI 5 mM glucose + 10% dialyzed FBS, 46.1 µM
[12] = HPLM + 10% dialyzed FBS, 0.000781 µM
[13] = HPLM + 10% dialyzed FBS, 0.00234 µM
[14] = HPLM + 10% dialyzed FBS, 0.00702 µM
[15] = HPLM + 10% dialyzed FBS, 0.0211 µM
[16] = HPLM + 10% dialyzed FBS, 0.0632 µM
[17] = HPLM + 10% dialyzed FBS, 0.19 µM
[18] = HPLM + 10% dialyzed FBS, 0.569 µM
[19] = HPLM + 10% dialyzed FBS, 1.71 µM
[20] = HPLM + 10% dialyzed FBS, 5.12 µM
[21] = HPLM + 10% dialyzed FBS, 15.4 µM
[22] = HPLM + 10% dialyzed FBS, 46.1 µM
[23] = RPMI 5 mM glucose + 10% FBS, 0.000781 µM
[24] = RPMI 5 mM glucose + 10% FBS, 0.00234 µM
[25] = RPMI 5 mM glucose + 10% FBS, 0.00702 µM
[26] = RPMI 5 mM glucose + 10% FBS, 0.0211 µM
[27] = RPMI 5 mM glucose + 10% FBS, 0.0632 µM
[28] = RPMI 5 mM glucose + 10% FBS, 0.19 µM
[29] = RPMI 5 mM glucose + 10% FBS, 0.569 µM
[30] = RPMI 5 mM glucose + 10% FBS, 1.71 µM
[31] = RPMI 5 mM glucose + 10% FBS, 5.12 µM
[32] = RPMI 5 mM glucose + 10% FBS, 15.4 µM
[33] = RPMI 5 mM glucose + 10% FBS, 46.1 µM

| Structure (SMILES) | cell viability [1] [%] | cell viability [2] [%] | cell viability [3] [%] | cell viability [4] [%] | cell viability [5] [%] | cell viability [6] [%] | cell viability [7] [%] | cell viability [8] [%] | cell viability [9] [%] | cell viability [10] [%] | cell viability [11] [%] | cell viability [12] [%] | cell viability [13] [%] | cell viability [14] [%] | cell viability [15] [%] | cell viability [16] [%] | cell viability [17] [%] | cell viability [18] [%] | cell viability [19] [%] | cell viability [20] [%] | cell viability [21] [%] | cell viability [22] [%] | cell viability [23] [%] | cell viability [24] [%] | cell viability [25] [%] | cell viability [26] [%] | cell viability [27] [%] | cell viability [28] [%] | cell viability [29] [%] | cell viability [30] [%] | cell viability [31] [%] | cell viability [32] [%] | cell viability [33] [%] |
| --- | --- | --- | --- | --- | --- | --- | --- | --- | --- | --- | --- | --- | --- | --- | --- | --- | --- | --- | --- | --- | --- | --- | --- | --- | --- | --- | --- | --- | --- | --- | --- | --- | --- |
| C[S+](=O)([O-])c1ccc(C(=O)Nc2ccc(Cl)c(-c3ccccn3)c2)c(Cl)c1 | 119 | 110 | 138 | 143 | 130 | 136 | 139 | 144 | 144 | 135 | 128 |  |  |  |  |  |  |  |  |  |  |  |  |  |  |  |  |  |  |  |  |  |  |
| Cc1csc(NC(=O)c2sc3nc4c(c(C(F)(F)F)c3c2N)CCC4)n1 | 83.5 | 91.2 | 93 | 93.1 | 91.3 | 89.4 | 91 | 97.9 | 96.3 | 95.3 | 89.7 | 91.6 | 102 | 97.9 | 101 | 96.7 | 96.4 | 99.4 | 91.4 | 94 | 79.6 | 77.6 | 81.7 | 94.4 | 92.3 | 87.4 | 90.6 | 86 | 91.7 | 88.1 | 87.2 | 78.3 | 85.5 |
| COc1ncnc(N[S+](=O)([O-])c2ccc(N)cc2)c1OC | 103 | 115 | 97.2 | 110 | 117 | 119 | 123 | 108 | 70.9 | 36.7 | 19 | 111 | 111 | 104 | 122 | 102 | 123 | 97.6 | 61.4 | 31.5 | 8.89 | 7.76 | 97.7 | 107 | 107 | 98 | 101 | 112 | 103 | 106 | 51.3 | 24 | 13.5 |
| CN1C(=O)C[C@H](C(=O)N[C@@H](Cc2cnc[nH]2)C(=O)N2CCC[C@H]2C(N)=O)NC1=O |  |  |  |  |  |  |  |  |  |  |  | 119 | 122 | 109 | 113 | 116 | 125 | 126 | 130 | 104 | 108 | 107 | 126 | 115 | 121 | 119 | 126 | 132 | 114 | 124 | 116 | 115 | 114 |
| CCC(=O)N[C@H]1CC[C@H](C(=O)N(C)c2ccc(-c3nc4ccccc4o3)cc2)C1 | 83.8 | 89.2 | 89.8 | 87.8 | 86.1 | 86 | 94.1 | 90.4 | 84.6 | 81 | 84.6 | 85.7 | 106 | 74.4 | 111 | 103 | 92.5 | 97.6 | 98.2 | 101 | 98.5 | 78.3 | 95.8 | 100 | 89.6 | 85.1 | 99.4 | 101 | 97.4 | 94.2 | 86 | 88.6 | 96.9 |
| Nc1ncnc2ccccc12 | 88.1 | 84.1 | 79.2 | 44.1 | 81.6 | 86.7 | 89 | 89.9 | 90.6 | 98.4 | 96 | 77.8 | 100 | 100 | 35.2 | 97.8 | 87 | 88.3 | 101 | 88.4 | 105 | 105 | 84.2 | 85.9 | 87.6 | 18.6 | 97.6 | 91.4 | 101 | 95.4 | 88.3 | 90.9 | 81.7 |
| O=C\1N(N\C=C1[N]2C=CN=N2)C3=NC=NC(=C3)N4CCOCC4 | 70.9 | 79.4 | 81.5 | 88.9 | 72.9 | 29.9 | 14.4 | 19.6 | 18.6 | 19.4 | 18.8 | 81.9 | 84.5 | 82 | 83.9 | 25.7 | 25.8 | 26.3 | 23.8 | 28.3 | 28.4 | 26.6 | 71.2 | 83.9 | 82.7 | 87.8 | 71 | 16.8 | 12.8 | 14.9 | 15.6 | 14.2 | 16.5 |
| COc1cc2c(Nc3ccc(Br)cc3F)ncnc2cc1OCC1CCN(C)CC1 | 82.4 | 79.1 | 82.2 | 88.4 | 88.2 | 85.2 | 86.8 | 70.7 | 88.6 | 41.1 | 84.4 | 93.2 | 93.5 | 88.9 | 90.1 | 75 | 85.5 | 81 | 71 | 74.8 | 31.5 | 69.8 | 79 | 81.7 | 76.5 | 75.5 | 75.4 | 78.1 | 77 | 79.7 | 90.3 | 72.6 | 73 |
